For seven compounds, LD90 and logP results are on record in ChEMBL document CHEMBL3046374, “Preparation of 5-chloro-6-fluoroimidacloprid analogs and comparison of their insecticidal activity in a laboratory test with a 6-chloro-5-fluoro analog” (J Pestic Sci, 2007).

By logP is commonly meant the decadic logarithm of the partition coefficient of the neutral form, usually between octanol and water. A lower logP goes with lower lipophilicity.

One data set has as its system Nilaparvata lugens. The data set is described as follows: Insecticidal activity against Nilaparvata lugens (brown planthopper) second or third-instar nymphs fed on compound pre-treated rice seedlings assessed as insect mortality measured 5 days post compound treatment. The class given is functional.
Another data set relates to Myzus persicae. Briefly: Insecticidal activity against Myzus persicae (green peach aphid) first-instar nymphs fed on compound pre-treated egg plant seedlings or Japanese radish leaves assessed as insect mortality measured 5 days post compound treatment. The class given is functional.
Another data set has as its system Spodoptera litura. Briefly: Insecticidal activity against Spodoptera litura second-instar larvae fed on compound pre-treated cabbage leaves assessed as insect mortality measured 5 days post compound treatment. The class given is functional.
A short description of data set [1]: Lipophilicity, logP of the compound at 25 degC. To be noted: octanol/water. The class given is physicochemical.

Turning to `N#C/N=C1/OCCN1Cc1cnc(F)c(Cl)c1`, the values for the LD90 in the data set with Nilaparvata lugens, with Myzus persicae and in the data set on Spodoptera litura were greater than 200 ppm, 200 ppm and greater than 200 ppm, respectively.

As for `N#C/N=C1/SCCN1Cc1cnc(F)c(Cl)c1`, the LD90 is given as greater than 200 ppm in the data set with Nilaparvata lugens, 50 ppm in the data set with Myzus persicae and greater than 200 ppm in the data set on Spodoptera litura.

Take `N#C/N=C1/NCCN1Cc1cnc(F)c(Cl)c1`: the results for the LD90 in the data set with Nilaparvata lugens, in the data set with Myzus persicae and with Spodoptera litura were greater than 200 ppm, 200 ppm and greater than 200 ppm, respectively.

As to `O=[N+]([O-])/N=C1/NCCN1Cc1cnc(F)c(Cl)c1`, the LD90 in the data set on Nilaparvata lugens is reported as 50 ppm; in the data set with Myzus persicae, 200 ppm; in the data set with Spodoptera litura, greater than 200 ppm. The logP in data set [1] was 0.98.

On to `O=[N+]([O-])/N=C1/SCCN1Cc1cnc(F)c(Cl)c1`, for which the LD90 in the data set on Nilaparvata lugens, with Myzus persicae and in the data set on Spodoptera litura was greater than 200 ppm each time.

With `O=[N+]([O-])/N=C1/NCCN1Cc1cnc(Cl)c(F)c1` [5-FLUOROIMIDACLOPRID], the LD90 in the data set on Nilaparvata lugens is 0.2 ppm; in the data set on Myzus persicae it was 0.2 ppm; in the data set with Spodoptera litura, greater than 50 ppm. In data set [1], this compound had a logP of 0.79.

On to `O=[N+]([O-])/N=C1\NCCN1Cc1ccc(Cl)nc1` [IMIDACLOPRID], for which the LD90 with Nilaparvata lugens was 0.2 ppm; in the data set on Myzus persicae, 0.2 ppm; in the data set on Spodoptera litura it was greater than 50 ppm.
